Reference: US20170305943A1, “COMPOUNDS FOR THE TREATMENT OF BACTERIAL INFECTIONS” (priority 2014, published 2017)
In brackets after ≈: the same amount, converted by molar mass.

Key:
Assay in all cases: Bacterial Assay: Determination of Antibacterial Activity (MIC, broth microdilution or agar dilution)
Format in all cases: cell-based
[1] = system: Clostridium difficile (Isolate ID 027-01); details: Clostridioides difficile, 48 h, read-out: MIC (μg/mL) C. difficile (027-01)
Method in brief: (§1)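 MICs were set by CLSI broth microdilution or agar dilution for anaerobes, read visually after 48 hours at 37° C. under anaerobic gas packs. Medium was reinforced clostridial medium with 0.1% defibrinated horse blood; values are binned as A ≦1.01, B >1.0-4.0, C >4.0-16 μg/mL.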

[2] = system: Clostridium difficile (Isolate ID ATCC 9689); details: Clostridioides difficile, ATCC9689, 48 h, read-out: C. difficile MIC Activity Range
Method in brief: as §1

[3] = system: Clostridium difficile (Isolate ID BI-9); details: Clostridioides difficile, 48 h, read-out: MIC (μg/mL) C. difficile (B-I9)
Method in brief: as §1

SMILES	MIC [1] [µg/mL]	MIC [2] [µg/mL]	MIC [3] [µg/mL]
NC(=O)c1c(F)ccc(OCc2ccn(-c3ccc(OC(F)(F)F)cc3)n2)c1F [Compound 108, 2,6-difluoro-3-({1-[4-(trifluoromethoxy)phenyl]-1H-pyrazol-3-yl}methoxy)benzamide]	0.5 (≈ 1.21 µM)	< 1.01	0.5 (≈ 1.21 µM)
NC(=O)c1c(F)ccc(OCc2nc(-c3ccc(S(F)(F)(F)(F)F)cc3)ns2)c1F [Compound 110, 2,6-difluoro-3-({3-[4-(pentafluoro-lambda~6~- sulfanyl)phenyl]-1,2,4-thiadiazol-5-yl}methoxy)benzamide]	0.06 (≈ 0.127 µM)	< 1.01	0.06 (≈ 0.127 µM)
NC(=O)c1c(F)ccc(OCCc2nc(-c3ccc(OC(F)(F)F)cc3)cs2)c1F [Compound 111, 2,6-difluoro-3-(2-{4-[4-(trifluoromethoxy)phenyl]-1,3-thiazol-2-yl}ethoxy)benzamide]	0.25 (≈ 0.563 µM)	< 1.01	0.25 (≈ 0.563 µM)
NC(=O)c1c(F)ccc(OCc2nc(-c3ccc(S(F)(F)(F)(F)F)cc3)cs2)c1F [Compound 112, 2,6-difluoro-3-({4-[4-(pentafluoro-lambda~6~- sulfanyl)phenyl]-1,3-thiazol-2-yl}methoxy)benzamide]	0.12 (≈ 0.254 µM)	< 1.01	0.12 (≈ 0.254 µM)
NC(=O)c1c(F)ccc(OCCCOc2ccc(OC(F)(F)F)cc2)c1F [Compound 126, 2,6-difluoro-3-{3-[4-(trifluoromethoxy)phenoxy]propoxy}benzamide]	0.5 (≈ 1.28 µM)	< 1.01	0.5 (≈ 1.28 µM)
NC(=O)c1c(F)ccc(OCCCCOc2ccc(Cl)cc2)c1F [Compound 127, 3-[4-(4-chlorophenoxy)butoxy]-2,6-difluoro-benzamide]	0.25 (≈ 0.703 µM)	< 1.01	0.25 (≈ 0.703 µM)
NC(=O)c1c(F)ccc(OCCCCOc2ccc(OC(F)(F)F)cc2)c1F [Compound 128, 2,6-difluoro-3-{4-[4-(trifluoromethoxy)phenoxy]butoxy}benzamide]	0.06 (≈ 0.148 µM)	< 1.01	0.12 (≈ 0.296 µM)
NC(=O)c1c(F)ccc(OCCCCOc2ccc(C(F)(F)F)cc2)c1F [Compound 129, 2,6-difluoro-3-{4-[4 (trifluoromethyl)phenoxy]butoxy}benzamide]	0.06 (≈ 0.154 µM)	< 1.01	0.06 (≈ 0.154 µM)
NC(=O)c1c(F)ccc(OCCCCCOc2ccc(Cl)cc2)c1F [Compound 130, 3-{[5-(4-chlorophenoxy)pentyl]oxy}-2,6-difluorobenzamide]	0.5 (≈ 1.35 µM)	< 1.01	0.5 (≈ 1.35 µM)
NC(=O)c1c(F)ccc(OCCCCCOc2ccc(OC(F)(F)F)cc2)c1F [Compound 131, 2,6-difluoro-3-({5-[4-(trifluoromethoxy)phenoxy]pentyl}oxy) benzamide]	0.25 (≈ 0.596 µM)	< 1.01	0.25 (≈ 0.596 µM)
NC(=O)c1c(F)ccc(OCCCCCOc2ccc(C(F)(F)F)cc2)c1F [Compound 132, 2,6-difluoro-3-({5-[4 (trifluoromethyl)phenoxy]pentyl}oxy) benzamide]	0.25 (≈ 0.62 µM)	< 1.01	0.5 (≈ 1.24 µM)
NC(=O)c1c(F)ccc(OCCCCCCOc2ccc(Cl)cc2)c1F [Compound 133, 3-{[6-(4-chlorophenoxy)hexyl]oxy}-2,6-difluorobenzamide]	0.5 (≈ 1.3 µM)	< 1.01	0.5 (≈ 1.3 µM)
NC(=O)c1c(F)ccc(OCCCCCCOc2ccc(OC(F)(F)F)cc2)c1F [Compound 134, 2,6-difluoro-3-({6-[4 (trifluoromethoxy)phenoxy]hexyl}oxy) benzamide]	0.25 (≈ 0.577 µM)	< 1.01	0.25 (≈ 0.577 µM)
NC(=O)c1c(F)ccc(OCCCCCCOc2ccc(C(F)(F)F)cc2)c1F [Compound 135, 2,6-difluoro-3-({6-[4-(trifluoromethyl)phenoxy]hexyl}oxy)benzamide]	0.5 (≈ 1.2 µM)	< 1.01	0.5 (≈ 1.2 µM)
NC(=O)c1c(F)ccc(OCCOCCOc2ccc(Cl)cc2)c1F [Compound 136, 3-{2-[2-(4-chlorophenoxy)ethoxy]ethoxy}-2,6-difluorobenzamide]	4 (≈ 10.8 µM)	1 to 4 (≈ 2.69 to 10.8 µM)	4 (≈ 10.8 µM)
